Measured values taken from paper PMC4430599, “Population pharmacokinetics of intravenous and oral panobinostat in patients with hematologic and solid tumors” (European Journal of Clinical Pharmacology, 2015).

Key:
plasma protein = conditions: independent of the drug concentration in plasma; no reference given; cited from earlier work
CYP3A4 = system: CYP3A4; design: method as in PMID 21706316; conditions: coadministered CYP3A4 inhibitor; cited from earlier work
[1] = design: method as in PMID 16899611; conditions: IV, highest dose administered 14 mg/m^2; refractory hematologic tumors; cited from earlier work
[2] = design: method as in PMID 25939707; conditions: cited from earlier work
[3] = design: method as in PMID 22864948; conditions: cited from earlier work
[4] = design: method as in ref 22 (a number printed in a supplementary file, which may have a reference list of its own: not looked up in the article's list); conditions: second final model; allometric exponent of weight on V2, assumed, no bootstrap; cited from earlier work
[5] = design: method as in ref 17 = [17]; 17. Woo MM, Culver K, Li W, Liu A, Scott J, Parker K, Jalaluddin M, Laird G, Cooper MR, Schran HF (2008) Panobinostat (LBH589) pharmacokinetics (PK): implications for clinical safety and efficacy. Ann; conditions: oral, 60 mg; cited from earlier work
[6] = design: method as in PMID 25377157; conditions: patients with solid tumors with normal renal function; cited from earlier work
[7] = Population pharmacokinetic analysis (NONMEM), second final model; type: in vivo, patients
Source text: (§1) A population PK data set was constructed from 581 patients with advanced hematologic and solid tumors who participated in 14 phase 1 and phase 2 studies of panobinostat (Table 1). Studies A2101 and A2102 used IV panobinostat, whereas all other studies examined oral formulations of panobinostat. The CSF was used in two of the oral panobinostat studies, B2101and B2102, whereas the remaining studies used the FMI formulation. The two phase 1 dose-escalation studies of IV panobinostat used doses of 1.2 to 20 mg/m^2 daily administered under various intermittent regimens. In three phase 1 dose-escalation studies, patients received oral panobinostat at doses ranging from 10 to 80 mg/day (administered weekly on days 1, 3, and 5; or every other week; or on days 1 and 4 every week). In five phase 2 studies, patients with cutaneous T cell lymphoma, chronic myeloid leukemia, and multiple myeloma received 20 mg panobinostat orally per day on days 1, 3, and 5 weekly. In three clinical pharmacology studies, patients received oral panobinostat at 20 mg under various regimens for study-specific purposes: in cycle 1 followed by 20 mg per day (days 1, 3, and 5 weekly) or 45 mg (days 1 and 4 weekly) in subsequent cycles. In a phase 2 study of Hodgkin lymphoma, patients received 40 mg panobinostat on days 1, 3, and 5 weekly.
(§2) PK sampling generally occurred from predose through 48 h after each oral dose or predose through 24 h after each IV dose. Panobinostat was precipitated from plasma samples, evaporated to dryness, reconstituted with 10 % aqueous acetonitrile (containing 0.2 % formic acid), and analyzed by liquid chromatography–tandem mass spectrometry assay. The assay was linear from 0.5 to 500 ng/mL [15], and the bias and coefficient of variation (CV) values of the quality-control sample results ranged from −0.7 to 0.7 % and 2.3 to 11.6 %, respectively. The lower limit of quantification of panobinostat was 0.5 ng/mL for all studies except B2201 and B2203, for which it was 0.1 ng/mL. Values below the lower limit of quantification (6 % of the total) were excluded.
(§3) The model was developed based on the methods described by Wahlby and colleagues. Scatterplots used to visualize the plasma concentration vs. time profile were generated using R version 2.8.1 and SAS version 9.2. PK model building was conducted using the first-order conditional estimation method with INTERACTION (FOCEI) option, using the default three significant digits for convergence, within the software program nonlinear mixed-effect modeling (NONMEM) extended version VI and version VII. Random interindividual variability parameters were estimated using exponential parameterization. The exponential error models ensured that parameter estimates were within reasonable physiological bounds; negative values were not possible. Model selection criteria were based on both objective function values (OFVs), as generated by NONMEM, and graphic diagnostic plots. For each model analyzed, NONMEM calculated the minimum value of the OFV—a statistic that, up to an additive constant, is minus twice the log likelihood of the data. When two models are nested and the additional parameters of the larger model are not needed, the difference in their minimum OFV is asymptotically χ^2 distributed, with the number of degrees of freedom equal to the number of parameters not common to the two models. The likelihood ratio test compared the two models on the basis of the difference in their OFV values.
PK data from both the IV and oral routes were fitted simultaneously in order to allow for estimation of the oral bioavailability. Several models were explored, including two-compartment and three-compartment models with first-order elimination. […]

[8] = Population pharmacokinetic analysis (NONMEM), first final model; type: in vivo, patients
Source text: as §1, §2
The data sets for modeling were prepared using SAS version 9.2. The time of panobinostat dosing or collection of blood was computed based on the date and time when available. When the date or time was unknown, collection times were estimated based on time of examinations or schedule in the protocol. Demographic information, including age, body weight, height, sex, and race, was collected at screening and used in the analysis. […] BSA (m^2) was computed via the Gehan–George formula as 234.94×Weight^0.515×Height^0.422/10000 where weight is in kilograms and height is in centimeters. […] was computed via the Cockroft–Gault formula as 140−Age×Weight×0.85forfemales/72×Creatinine/88.4 where creatinine was in micromoles per liter.
as §3, with “When two models are nested and the additional parameters of the larger model are not needed, the difference in their minimum OFV is asymptotically χ^2 distributed, with the number of degrees of freedom equal to the number of parameters not common to the two models. The likelihood ratio test compared the two models on the basis of the difference in their OFV values.” left out

OM.CLV2 (Omega 2,1) ([7]; covariance CL-V2): 0.151 | OM.Q3V3 (Omega 4,3) ([7]; covariance Q3-V3): 0.505 | OM.Q4V4 (Omega 6,5) ([7]; covariance Q4-V4): 0.556 | Q3.AGE ([7]; exponent of (age/61) on Q3): 0.410 | Q4.AGE ([7]; exponent of (age/61) on Q4): 0.212 | V2.AGE ([7]; exponent of (age/61) on V2): -0.005 | V3.AGE ([7]; exponent of (age/61) on V3): 0.713 | V4.AGE ([7]; exponent of (age/61) on V4): 0.530 | bioavailability ([7]; human, plasma, oral, fraction, read-out: F1 (bioavailability)): 19.4% | clearance ([7]; human, plasma, other: intravenous and oral, fitted simultaneously, reference weight 70 kg, age 61, Caucasian): 481 mL/min | OM.Q3 (Omega 3,3) ([7]; interindividual variance of Q3): 0.666 | OM.Q4 (Omega 5,5) ([7]; interindividual variance of Q4): 0.497 | OM.V2 (Omega 2,2) ([7]; interindividual variance of V2): 1.668 | OM.V3 (Omega 4,4) ([7]; interindividual variance of V3): 0.441 | OM.V4 (Omega 6,6) ([7]; interindividual variance of V4): 0.700 | V2.ASIAN ([7]; multiplicative factor on V2, Asian vs Caucasian): 2.060 | V2.BLACK ([7]; multiplicative factor on V2, black vs Caucasian): 1.817 | V2.OTHER ([7]; multiplicative factor on V2, other race vs Caucasian): 0.835 | V3 (peripheral volume) ([7]; reference weight 70 kg, age 61): 71.874 L | V4 (peripheral volume) ([7]; reference weight 70 kg, age 61): 803.193 L | V2 ([7]; reference weight 70 kg, age 61, Caucasian): 30.862 L | dose proportionality of PK ([8]; dose range of 10 to 80 mg across the 14 studies, CL and V2 related to dose): dose proportional | K23 ([8]; first final model): 1.810 h⁻¹ | K24 ([8]; first final model): 1.424 h⁻¹ | K32 ([8]; first final model): 0.507 h⁻¹ | K42 ([8]; first final model): 0.040 h⁻¹ | interindividual (inter-patient) variability in clearance ([8]; first final model): 74% | OM.CLV2 (Omega 2,1) ([8]; first final model, covariance CL-V2): 0.178 | V2.BSA ([8]; first final model, exponent of (BSA/1.9) on V2): 1.359 | V2.AGE ([8]; first final model, exponent of (age/61) on V2): 0.396 | OM.V2 (Omega 2,2) ([8]; first final model, interindividual variance of V2): 0.334 | V2.ASIAN ([8]; first final model, multiplicative factor on V2, Asian vs Caucasian): 1.373 | V2.BLACK ([8]; first final model, multiplicative factor on V2, black vs Caucasian): 1.241 | V2.OTHER ([8]; first final model, multiplicative factor on V2, other race vs Caucasian): 1.127 | F1 (bioavailability) ([8]; first final model, oral, fraction): 0.214 | CL (clearance) ([8]; first final model, patient with BSA 1.9 m^2): 33.085 L/h | V2 (volume of the central compartment) ([8]; first final model, reference BSA 1.9 m^2, age 61, Caucasian): 24.838 L | clearance ([8]; human, plasma, other: IV and oral routes fitted simultaneously, first final model, patient with BSA 1.9 m^2, read-out: CL (clearance) (converted)): 552 mL/min | half-life ([8]; human, plasma, other: IV and oral routes fitted simultaneously, calculated based on the final parameter estimates, read-out: terminal half-life (converted)): ~37 h | bioavailability ([8]; human, plasma, first final model, oral, read-out: absolute bioavailability): 21.4%
SMILES: Cc1[nH]c2ccccc2c1CCNCc1ccc(/C=C/C(=O)NO)cc1 [panobinostat]
plasma protein binding (plasma protein): 90% | panobinostat exposure with ketoconazole (CYP3A4): significant increases | maximum concentration (Cmax, mean ± SD) [1]: 565.6 ± 450.9 ng/mL | panobinostat exposure with liver impairment [2]: significant increases | number of circulating metabolites [3]: approximately 40 | V2.WT [4]: 1.000 | mean Cmax [5]: 71 ng/mL | fraction excreted unchanged in the urine [6]: < 2.5%
